These results are taken from ChEMBL document CHEMBL1127841, “Adenosine deaminase inhibitors: synthesis and structure-activity relationships of 2-hydroxy-3-nonyl derivatives of azoles” (J Med Chem, 1994).

The structures appear in SMILES notation.

The target of this experiment is T1, Adenosine deaminase (Bos taurus, UniProt P56658).
T1 sequence (P56658 whole entry): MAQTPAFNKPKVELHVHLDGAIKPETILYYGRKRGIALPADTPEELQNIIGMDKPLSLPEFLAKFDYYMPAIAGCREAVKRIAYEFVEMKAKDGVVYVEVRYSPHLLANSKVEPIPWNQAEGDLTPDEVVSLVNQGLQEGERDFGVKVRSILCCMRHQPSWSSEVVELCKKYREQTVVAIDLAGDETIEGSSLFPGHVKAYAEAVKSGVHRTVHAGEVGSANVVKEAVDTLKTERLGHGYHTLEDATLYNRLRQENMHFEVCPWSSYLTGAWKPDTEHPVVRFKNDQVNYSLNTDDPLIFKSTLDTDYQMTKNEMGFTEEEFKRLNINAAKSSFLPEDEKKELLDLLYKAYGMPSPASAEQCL
The experiment in a line: In vitro inhibition of adenosine deaminase isolated from calf intestine.
As to `CCCCCCC(C(C)O)n1ccnc1` (stereo in doubt; 6t), the Ki worked out at 1.8 µM.
With `CCCCCCC(C(C)O)n1ccnn1` (stereo in doubt; 13t), the Ki came to 100 µM.
`CCCCCCC(C(C)O)n1ncnn1` (stereo in doubt; 25e) displayed a Ki of 9.6 µM.
As for `CCCCCCC(C(C)O)n1cncn1` (stereo in doubt; 18t), the figure is 1 µM; as for `CCCCCCC(C(C)O)n1ccnc1` (stereo in doubt; 6e), 0.7 µM; as for `CCCCCCC(C(C)O)n1ncnn1` (stereo in doubt; 25t), above 1000 µM.
`CCCCCCC(C(C)O)n1cnc2c(N)nccc21` (stereo not given) yielded an inhibitory constant (Ki) of 0.16 µM.
The molecule `CCCCCCC(C(C)O)n1cncn1` (stereo in doubt; 18e) yielded a Ki of 0.3 µM.
As for `CCCCCCC(C(C)O)n1cnnn1` (stereo in doubt; 23e), the figure is 0.6 µM; as for `CCCCCCC(C(C)O)n1cnnc1` (stereo not given), 26 µM; as for `CCCCCCC(C(C)O)n1cnnn1` (stereo in doubt; 23t), 15 µM.
Turning to `CCCCCCC(C(C)O)n1nccn1` (stereo not given), the Ki was above 400 µM.
As for `CCCCCCC(C(C)O)n1cnc2c(N)ccnc21` (stereo not given), the figure is 0.01 µM.
`CCCCCCC(C(C)O)n1ccnn1` (stereo in doubt; 13e) had a Ki of 24 µM.
In turn, `CCCCCCC(C(C)O)n1cccn1` (stereo not given) showed a Ki above 1000 µM.
